The record followed here is publication PMC10449633 (Nature Chemical Biology, 2023).

Several values for one entry are separate records, joined by “and”; a condition that tells them apart may be missing. Equal values may be shown once. Read-outs that look alike come from different tables or passages of the source. Numbered stars: 1 amine (or outer) side, 2 acyl side, 3 side chain; on linkers, the order of the positions; unused ones are H or OH. Square brackets hold non-standard residues; d marks the D form. Peptide text beside a SMILES is read from it. NMeTrp(1-(4-Br-benzyl)) = CN[C@@H](Cc1cn(Cc2ccc(Br)cc2)c2ccccc12)C(=O)O; X3 = CCn1cc(C[C@@H](C(=O)[*:2])N(C)[*:1])c2ccccc21; Butanoyl(2R-oxy,4-CN) = N#CCC[C@@H](O)C(=O)O; Abu(4,4,4-F3) = N[C@@H](CC(F)(F)F)C(=O)O; NMeL = CN[C@@H](CC(C)C)C(=O)O; NMeA = CN[C@@H](C)C(=O)O

In one assay the target is T1, Sec61 (Homo sapiens, UniProt P61619).
T1 construct: endogenous in cells
As to the kind of experiment: cell-based. Particulars: for IC50: 24 h, range in brackets.

The test system of assay [1] is collagen antibody-induced arthritis in BALB/c mice. As to the kind of experiment: Anticollagen antibody-induced arthritis model, clinical scores. It counts as in vivo, mouse. As to conditions: individual mice.
Assay [2] concerns SARS-CoV-2. The assay is classed as cell-based. As to conditions: 48 h.
Assay [3] deals with SARS-CoV-2. The assay is classed as cell-based. Particulars: 48 h. This is another data set of the same source.
For assay [4], the system named is SARS-CoV-2. Particulars: infected 48 h.

T1 sequence (P60059 whole entry): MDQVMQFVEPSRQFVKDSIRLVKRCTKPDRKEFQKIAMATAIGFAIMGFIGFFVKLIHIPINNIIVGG
T1 sequence (P61619 whole entry): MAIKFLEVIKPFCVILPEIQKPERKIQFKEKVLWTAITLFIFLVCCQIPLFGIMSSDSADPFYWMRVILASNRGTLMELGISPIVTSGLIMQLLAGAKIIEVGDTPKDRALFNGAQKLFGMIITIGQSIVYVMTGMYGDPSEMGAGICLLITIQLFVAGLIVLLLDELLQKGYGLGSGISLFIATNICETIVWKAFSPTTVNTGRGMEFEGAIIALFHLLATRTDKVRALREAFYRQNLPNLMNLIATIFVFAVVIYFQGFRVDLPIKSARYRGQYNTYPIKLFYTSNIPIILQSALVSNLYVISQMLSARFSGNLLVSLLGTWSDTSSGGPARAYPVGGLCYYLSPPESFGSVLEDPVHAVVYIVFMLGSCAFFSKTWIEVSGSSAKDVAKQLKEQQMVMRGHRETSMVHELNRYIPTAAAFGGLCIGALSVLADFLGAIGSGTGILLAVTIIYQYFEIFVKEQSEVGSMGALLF
T1 sequence (P60468 whole entry, further chain): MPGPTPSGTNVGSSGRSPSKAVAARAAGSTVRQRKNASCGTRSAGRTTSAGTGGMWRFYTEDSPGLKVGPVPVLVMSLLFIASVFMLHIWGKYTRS

For `CCn1cc(C[C@H]2C(=O)N[C@@H](CC(C)C)C(=O)N(C)[C@@H](C)C(=O)O[C@H](CCC#N)C(=O)N[C@@H](CC(F)(F)F)C(=O)N(C)[C@@H](CC(C)C)C(=O)N[C@@H](CC(F)(F)F)C(=O)N2C)c2ccccc21` [KZR-0509508] (cyclo(L[NMeA][Butanoyl(2R-oxy,4-CN)][Abu(4,4,4-F3)][NMeL][Abu(4,4,4-F3)][X3])), the “GLuc reporter raw signal (replicates)” value was 2917200 and 2920600 and 2895100 at Sec61 (HER3, Concentration 0.32); 2324600 and 2421500 and 2482600 at Sec61 (HER3, Concentration 40); 860870 and 901980 and 850270 on Sec61 (HER3, Concentration 200); 128950 and 127590 and 122180 on Sec61 (HER3, Concentration 1000); 21107 and 19954 and 21458 at Sec61 (HER3, Concentration 5000); 18661 and 19673 and 20195 at Sec61 (HER3, Concentration 25000). Besides, the “GLuc reporter raw signal (replicates)” value is 2617800 and 2680800 and 2713900 at Sec61 (IL2, Concentration 0.32); 2560100 and 2737500 and 2592900 at Sec61 (IL2, Concentration 8); 2448500 and 2433000 and 2516300 at Sec61 (IL2, Concentration 40); 2434300 and 2250900 and 2386200 on Sec61 (IL2, Concentration 200); 1366100 and 1331100 and 1340300 on Sec61 (IL2, Concentration 1000); 148660 and 137160 and 137620 at Sec61 (IL2, Concentration 5000). The “GLuc reporter raw signal (replicates)” value at Sec61 (IL2, Concentration 25000) is 72344 and 71940 and 72808; at Sec61 (PD1, Concentration 0.32) it was 1140200 and 1151600 and 1079300; on Sec61 (PD1, Concentration 8), 1090400 and 1094000 and 1069700; on Sec61 (PD1, Concentration 40) it was 1001600 and 1054300 and 960410; on Sec61 (PD1, Concentration 200) it was 810270 and 826880 and 727000; at Sec61 (PD1, Concentration 1000), 298160 and 288700 and 294700. Further, the “GLuc reporter raw signal (replicates)” value is 19269 and 21595 and 21074 on Sec61 (PD1, Concentration 5000); 12135 and 12576 and 11044 on Sec61 (PD1, Concentration 25000); 8343700 and 8651000 and 8237500 at Sec61 (Prolactin, Concentration 0.32); 8140000 and 8910000 and 8852700 at Sec61 (Prolactin, Concentration 8); 8482300 and 8946000 and 7991900 at Sec61 (Prolactin, Concentration 40); 8151300 and 9013100 and 8191700 on Sec61 (Prolactin, Concentration 200). In addition, the “GLuc reporter raw signal (replicates)” value is 7614900 and 8029100 and 7622300 at Sec61 (Prolactin, Concentration 1000); 6257700 and 6043200 and 6299800 at Sec61 (Prolactin, Concentration 5000); 4760600 and 4742900 and 4623400 on Sec61 (Prolactin, Concentration 25000); 157540 and 153990 and 156290 on Sec61 (TNFa, Concentration 0.32); 177590 on Sec61 (TNFa, Concentration 8); 174140 and 177930 and 180980 on Sec61 (TNFa, Concentration 40). Moreover, the “GLuc reporter raw signal (replicates)” value on Sec61 (TNFa, Concentration 200) was 165100 and 188550 and 172890; at Sec61 (TNFa, Concentration 1000), 101080 and 103620 and 107580; at Sec61 (TNFa, Concentration 5000), 30162 and 28185 and 30634; on Sec61 (TNFa, Concentration 25000) it was 17845 and 17474 and 16301.
As for `CCn1cc(C[C@H]2C(=O)N[C@@H](CC(C)C)C(=O)N(C)[C@@H](C)C(=O)O[C@H](CCC#N)C(=O)N[C@@H](CC(F)(F)F)C(=O)N(C)[C@@H](CC(C)C)C(=O)N[C@@H](CC(F)(F)F)C(=O)N2C)c2ccccc21` [KZR-9508] (cyclo(L[NMeA][Butanoyl(2R-oxy,4-CN)][Abu(4,4,4-F3)][NMeL][Abu(4,4,4-F3)][X3])), the “selectivity compared with KZR-8445” value at Sec61 was “greater selectivity”. For the same compound, the IC50 (usually the concentration that gives 50% inhibition) is 103 nM and ~100 nM at Sec61 (HER3 signal peptide-GLuc, read-out: IC50 (nM) HER3); 388 nM on Sec61 (PD1 signal peptide-GLuc, read-out: IC50 (nM) PD1); 1420 nM on Sec61 (full-length IL-2-GLuc, read-out: IC50 (nM) IL-2); 908 nM at Sec61 (full-length TNFα-GLuc, read-out: IC50 (nM) TNFα); 25600 nM on Sec61 (prolactin signal peptide-GLuc, read-out: IC50 (nM) Prolactin). Moreover, the “loss of potency relative to KZR-8445” value on Sec61 (four of five GLuc reporters) is reported as 10–20 fold.
Turning to `C[C@@H]1C[C@H]2[C@@H]3CCC4=CC(=O)C=C[C@]4(C)[C@@]3(F)[C@@H](O)C[C@]2(C)[C@@]1(O)C(=O)CO` [dexamethasone, reference compound], the Clinical score in assay [1] (1.5mg/kg IP QODx3, day 4) is 1 (5×) and 2 (4×) and 3; in assay [1] (1.5mg/kg IP QODx3, day 5), 3 (5×) and 4 (2×) and 2 and 5 (2×); in assay [1] (1.5mg/kg IP QODx3, day 6) it was 4 (2×) and 6 (6×) and 2 and 5; in assay [1] (1.5mg/kg IP QODx3, day 7), 6 (4×) and 4 and 7 (3×) and 5 and 8; in assay [1] (1.5mg/kg IP QODx3, day 10), 6 (3×) and 7 (2×) and 9 (2×) and 5 and 11 and 8; in assay [1] (1.5mg/kg IP QODx3, day 11), 7 (3×) and 6 (2×) and 8 (2×) and 4 and 9 and 10. The Clinical score in assay [1] (1.5mg/kg IP QODx3, day 12) was 7 (4×) and 6 (2×) and 9 (3×) and 3; in assay [1] (1.5mg/kg IP QODx3, day 13) it was 7 (3×) and 5 and 6 (2×) and 8 (2×) and 3 and 9; in assay [1] (1.5mg/kg IP QODx3, day 14), 6 (2×) and 5 and 8 (2×) and 7 (2×) and 3 and 10 and 9.
On to `CC(C)C[C@@H]1NC(=O)[C@H](Cc2cn(Cc3ccc(Br)cc3)c3ccccc23)N(C)C(=O)[C@H](CC(F)(F)F)NC(=O)[C@H](CC(C)C)N(C)C(=O)[C@H](CC(F)(F)F)NC(=O)[C@@H](CCC#N)OC(=O)[C@H](C)N(C)C1=O` [KZR-508445] (cyclo(L[NMeA][Butanoyl(2R-oxy,4-CN)][Abu(4,4,4-F3)][NMeL][Abu(4,4,4-F3)][NMeTrp(1-(4-Br-benzyl))])), for which the Clinical score was 9 (2×) and 6 and 11 (2×) and 4 and 12 and 8 and 13 and 7 in assay [1] (2.5 mg/kg IV QODx3, day 13); 9 (2×) and 5 and 11 (2×) and 2 and 12 and 10 and 13 and 7 in assay [1] (2.5 mg/kg IV QODx3, day 14); 11 (2×) and 5 and 10 and 4 (3×) and 8 and 7 and 9 in assay [1] (5 mg/kg IV QODx3, day 13); 12 and 5 and 8 (2×) and 4 (2×) and 3 and 6 and 9 and 11 in assay [1] (5 mg/kg IV QODx3, day 14); 4 and 6 (3×) and 9 (2×) and 5 (2×) and 3 and 7 in assay [1] (10 mg/kg IV QODx3, day 13); 5 (3×) and 7 (2×) and 9 and 6 and 8 (2×) and 3 in assay [1] (10 mg/kg IV QODx3, day 14). Moreover, the Clinical score in assay [1] (20 mg/kg IV QODx3, day 4) is 1 (4×) and 2 (2×); in assay [1] (20 mg/kg IV QODx3, day 13), 1 (2×) and 3 (2×) and 2 and 0 and 4; in assay [1] (20 mg/kg IV QODx3, day 14), 1 (2×) and 3 (3×) and 2 and 0; in assay [1] (20 mg/kg IV QW, day 13), 0 and 2 and 9 and 6 (2×) and 7 (2×) and 8 (2×) and 4; in assay [1] (20 mg/kg IV QW, day 14), 0 and 2 and 9 (2×) and 7 (2×) and 6 and 8 (2×) and 5.
In the case of `CC[C@H]1CN2CCc3cc(OC)c(OC)cc3[C@@H]2C[C@@H]1C[C@H]1NCCc2cc(OC)c(OC)cc21` [Emetine, reference compound], the “infectious virus particle production” value in the assay on SARS-CoV-2 [2] (1.11 uM) was 632.456 TCID50 per milliliter; in the assay with SARS-CoV-2 [2] (3.33 uM) it was 632.456 TCID50 per milliliter and 430.887 TCID50 per milliliter; in the assay on SARS-CoV-2 [2] (10 uM), 632.456 TCID50 per milliliter. In addition, the “viral genome copy number” value is 24100000 and 12600000 and 15400000 in the assay with SARS-CoV-2 [3] (0.01 uM); 19500000 and 12600000 and 14500000 in the assay on SARS-CoV-2 [3] (0.04 uM); 9690000 and 6770000 and 10700000 in the assay on SARS-CoV-2 [3] (0.12 uM); 81000 and 73500 and 71100 with SARS-CoV-2 [3] (1.11 uM); 85400 and 62200 and 61600 in the assay on SARS-CoV-2 [3] (3.33 uM); 58200 and 54400 and 71200 with SARS-CoV-2 [3] (10 uM). Also, the cell viability with SARS-CoV-2 [4] (0.01 uM) was 70.4141 and 72.6149 and 69.2712; with SARS-CoV-2 [4] (0.04 uM), 77.6184 and 78.5394 and 67.5514; with SARS-CoV-2 [4] (0.12 uM), 91.8387 and 89.8998 and 85.3326; with SARS-CoV-2 [4] (0.37 uM), 98.5387 and 106.593 and 107.116; with SARS-CoV-2 [4] (1.11 uM), 85.9306 and 97.0439 and 95.1349; in the assay on SARS-CoV-2 [4] (3.33 uM) it was 86.5239 and 91.9706 and 91.8345. Further, the cell viability in the assay on SARS-CoV-2 [4] (10 uM) is 89.2076 and 95.1684 and 93.0072.
